Assay results reported in ChEMBL document CHEMBL5370554, “Discovery of a first-in-class Aurora A covalent inhibitor for the treatment of triple negative breast cancer” (Eur J Med Chem, 2023).
pIC50: −log10 of the molar value. The source made the active and inactive calls. The rule behind the calls is not given here.

Tests used:
[1] = Toxicity in BALB/c nude mouse xenografted with human MDA-MB-231 cells assessed as parenchymal injury in heart at 15 mg/kg,ip every 2days for 20 days by Hematoxylin and Eosin staining based microscopy; format: organism-based; settings: in vivo, 480 h, time 20 day
[2] = Metabolic stability in Sprague-Dawley rat liver microsomes assessed as elimination rate constant at 1.75 uM incubated upto 60 mins in presence of NADPH by LC-MS analysis; format: ADME, Microsome
[3] = molecular target: T1, Aurora kinase A (Homo sapiens) (UniProt O14965); test: Covalent irreversible inhibition of recombinant human Aurora A (1 to 403 residues) expressed in Escherichia coli using STK-substrate 2-biotin as substrate at 0.625 to 40 uM incubated upto 120 mins in presence of ATP by HTRF assay; settings: dose 0.625-40 µM, TDE = time-dependent effect
T1 sequence (whole entry): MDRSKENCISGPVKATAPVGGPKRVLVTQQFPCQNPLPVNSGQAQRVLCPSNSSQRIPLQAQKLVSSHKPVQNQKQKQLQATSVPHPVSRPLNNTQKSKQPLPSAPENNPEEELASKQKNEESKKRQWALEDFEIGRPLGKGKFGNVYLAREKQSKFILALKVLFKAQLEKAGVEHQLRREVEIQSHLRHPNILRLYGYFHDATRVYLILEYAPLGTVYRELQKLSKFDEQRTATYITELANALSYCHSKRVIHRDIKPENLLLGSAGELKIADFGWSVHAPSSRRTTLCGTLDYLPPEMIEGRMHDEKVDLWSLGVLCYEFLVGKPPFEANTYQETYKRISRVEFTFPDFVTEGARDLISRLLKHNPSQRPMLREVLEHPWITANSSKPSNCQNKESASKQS

MDA-MB-231 [4] = test: Induction of apoptosis in human MDA-MB-231 cells assessed as late apoptotic cells at 5 uM incubated for 24 hrs by Annexin V-FITC staining based flow cytometry (Rvb= 6.90%); format: functional
MDA-MB-231 [5] = test: Induction of apoptosis in human MDA-MB-231 cells assessed as early apoptotic cells at 1.25 uM incubated for 24 hrs by Annexin V-FITC staining based flow cytometry (Rvb= 3.3%); format: functional
Aurora kinase A [6] = molecular target: T2, Aurora kinase A (Homo sapiens, UniProt O14965); test: Inhibition of recombinant human Aurora A (1 to 403 residues) expressed in Escherichia coli using STK-substrate 2-biotin as substrate incubated for 40 mins in presence of 24 uM ATP by HTRF assay
T2 sequence (O14965 whole entry): T1 sequence (whole entry)

[7] = molecular target: T1, Aurora kinase A (Homo sapiens); test: Binding affinity to Aurora A in human MDA-MB-231 cells assessed as thermal stability at 46 to 62 degreeC at 1 uM incubated for 1 hrs by […] analysis; format: cell-based
Aurora kinase A [8] = molecular target: T2, Aurora kinase A; test: Inhibition of recombinant human Aurora A (1 to 403 residues) expressed in Escherichia coli using STK-substrate 2-biotin as substrate incubated for 15 mins in presence of 7.2uM ATP by HTRF assay
Aurora kinase A [9] = molecular target: T2, Aurora kinase A; test: Inhibition of recombinant human Aurora A (1 to 403 residues) expressed in Escherichia coli using STK-substrate 2-biotin as substrate incubated for 40 mins in presence of 0.48 uM ATP by HTRF assay
MDA-MB-231 [10] = test: Induction of apoptosis in human MDA-MB-231 cells assessed as late apoptotic cells at 1.25 uM incubated for 24 hrs by Annexin V-FITC staining based flow cytometry (Rvb= 6.90%); format: functional
[11] = molecular target: T1, Aurora kinase A (Homo sapiens); test: Irreversible inhibition of recombinant human Aurora A (1 to 403 residues) expressed in Escherichia coli assessed as ratio of Kinact/Ki using STK-substrate 2-biotin as substrate at 0.625 to 40 uM incubated upto 7000 sec in presence of ATP by HTRF assay; settings: dose 0.625-40 µM
[12] = molecular target: T1, Aurora kinase A (Homo sapiens); test: Covalent binding affinity to recombinant human Aurora A (1 to 403 residues) expressed in Escherichia coli assessed as dissociation rate constant by surface plasmon resonance analysis
MDA-MB-231 [13] = test: Induction of apoptosis in human MDA-MB-231 cells assessed as early apoptotic cells at 2.5 uM incubated for 24 hrs by Annexin V-FITC staining based flow cytometry (Rvb= 3.3%); format: functional
SJSA-1 = test: Antiproliferative activity against human SJSA-1 cells assessed as inhibition of cell proliferation incubated for 48 hrs by CCK-8 assay; format: functional, cell-based; settings: SJSA-1, 48 h
[14] = Metabolic stability in Sprague-Dawley rat liver microsomes assessed as intrinsic clearance at 1.75 uM incubated upto 60 mins in presence of NADPH by LC-MS analysis; format: ADME, Microsome; settings: read-out: CLH
MDA-MB-231 [15] = test: Antitumor activity against human MDA-MB-231 cells xenografted in BALB/c nude mouse assessed as tumor growth inhibition at 15 mg/kg,ip every 2days for 20 days; format: functional; settings: MDA-MB-231, 480 h, time 20 day, read-out: TGI
[16] = Toxicity in BALB/c nude mouse xenografted with human MDA-MB-231 cells assessed as inflammatory cell infiltration in liver at 15 mg/kg,ip every 2days for 20 days by Hematoxylin and Eosin staining based microscopy; format: organism-based; settings: in vivo, 480 h, time 20 day
MDA-MB-231 [17] = test: Induction of cell cycle arrest in human MDA-MB-231 cells assessed as accumulation at G2/M phase at 5 uM incubated for 24 hrs by PI staining based flow cytometry (Rvb=14.0%); format: functional
MDA-MB-231 [18] = test: Induction of apoptosis in human MDA-MB-231 cells assessed as necrotic cells at 1.25 uM incubated for 24 hrs by Annexin V-FITC staining based flow cytometry (Rvb= 1.67%); format: functional
Aurora kinase A [19] = molecular target: T2, Aurora kinase A; test: Inhibition of recombinant human Aurora A (1 to 403 residues) expressed in Escherichia coli using STK-substrate 2-biotin as substrate incubated for 15 mins in presence of 0.48 uM ATP by HTRF assay
Aurora kinase A [20] = molecular target: T2, Aurora kinase A; test: Inhibition of recombinant human Aurora A (1 to 403 residues) expressed in Escherichia coli using STK-substrate 2-biotin as substrate incubated for 40 mins in presence of 2.4uM ATP by HTRF assay
Aurora kinase A [21] = molecular target: T2, Aurora kinase A; test: Inhibition of recombinant human Aurora A (1 to 403 residues) expressed in Escherichia coli using FAM-labeled peptide as substrate preincubated for 10 mins followed by substrate addition and measured after 20 mins in presence of ATP by HTRF assay
MDA-MB-231 [22] = test: Induction of apoptosis in human MDA-MB-231 cells assessed as live cells at 1.25 uM incubated for 24 hrs by Annexin V-FITC staining based flow cytometry (Rvb= 88.1%); format: functional
MDA-MB-231 [23] = test: Induction of apoptosis in human MDA-MB-231 cells assessed as live cells at 2.5 uM incubated for 24 hrs by Annexin V-FITC staining based flow cytometry (Rvb= 88.1%); format: functional
Aurora kinase A [24] = molecular target: T2, Aurora kinase A; test: Inhibition of recombinant human Aurora A (1 to 403 residues) expressed in Escherichia coli using STK-substrate 2-biotin as substrate incubated for 15 mins in presence of 2.4uM ATP by HTRF assay
[25] = Toxicity in BALB/c nude mouse xenografted with human MDA-MB-231 cells assessed as parenchymal injury in spleen at 15 mg/kg,ip every 2days for 20 days by Hematoxylin and Eosin staining based microscopy; format: organism-based; settings: in vivo, 480 h, time 20 day

With `C=CC(=O)Nc1ccc(-c2nc(Nc3cc(C)[nH]n3)c3ccc(N4CCN(C)CC4)cc3n2)cc1` the Activity [1] was “Non-Toxic”, the k el at 1 h, 1.75 µM [2] was 0.000467 s⁻¹ and the inhibition [3] was “Tde”. For the same compound, the Activity (MDA-MB-231 [4]) was 62.6%, the Activity (MDA-MB-231 [5]) was 10.5% and the pIC50 (Aurora kinase A [6]) was 8.08. For the same compound, the Activity [7] was “Active”, the pIC50 (Aurora kinase A [8]) was 8.36 and the pIC50 (Aurora kinase A [9]) was 8.81. The Activity (MDA-MB-231 [10]) was 18.1%, the Ratio [11] was 6.02 10^3/M/s and the Activity [12] was “Active”. For the same compound, the Activity (MDA-MB-231 [13]) was 17.7%, the pIC50 (SJSA-1) was 5.37 and the microsomal CLint at 1.75 µM [14] was 71.3 µL/min/mg. For the same compound, the inhibition in vivo at 15 mg/kg (MDA-MB-231 [15]) was 32.3%, the Activity [16] was “Non-Toxic” and the Activity (MDA-MB-231 [17]) was 50.8%. The Activity (MDA-MB-231 [18]) was 1.83%, the pIC50 (Aurora kinase A [19]) was 8.83 and the pIC50 (Aurora kinase A [20]) was 8.56. It also gave a pIC50 (Aurora kinase A [21]) of 8.77, an Activity (MDA-MB-231 [22]) of 69.5% and an Activity (MDA-MB-231 [23]) of 60.1%. For the same compound, the pIC50 (Aurora kinase A [24]) was 8.40 and the Activity [25] was “Non-Toxic”.
